This note sets out measurements from article PMC8617976, “Inhibitory Potential of New Phenolic Hydrazide-Hydrazones with a Decoy Substrate Fragment towards Laccase from a Phytopathogenic Fungus: SAR and Molecular Docking Studies” (International Journal of Molecular Sciences, 2021).

In assay [1] the target is T1, laccase from Trametes versicolor.
T1 construct: gene LCC2; PDB 1GYC (laccase 2) used for docking only
Kind of assay: syringaldazine oxidation at […] nm, Lineweaver-Burk. Conditions: McIlvaine buffer pH 5.3, 25 °C, 30 min preincubation, methanol co-solvent. The assay is classed as biochemical.

The target is the same in assay [2]. Kind of assay: syringaldazine oxidation at […] nm, Lineweaver-Burk. The assay is classed as biochemical. Conditions: McIlvaine buffer pH 5.3, 25 °C, 30 min preincubation, methanol co-solvent, printed as not active up to 1000 µM, type not determined.
Setting [3] is: mixed type, non-competitive component.

Broadly, the Ki is the dissociation constant of the complex between target and ligand, obtained from inhibition or displacement. Low readings indicate tighter binding, high ones weaker binding. For the compound `CC(C)(C)c1cc(/C=N/NC(=O)c2cc(O)cc(O)c2)c(O)c(C(C)(C)C)c1` [4i, 3,5-Dihydroxy-N’-[(E)-(3,5-di-tert-butyl-2-hydroxyphenyl)methylidene]benzohydrazide], the affinity in assay [1] (competitive), expressed as Ki, was 55.6 µM.
The compound `O=C(N/N=C/c1cccc(-c2ccccc2)c1O)c1ccccc1O` [4m, 2-Hydroxy-N’-[(E)-(2-hydroxy-3-phenyl-phenyl)methylidene]benzohydrazide] gave an inhibitory constant (Ki) in assay [1] (mixed type, competitive component) of 26.4 µM.
Consider `CC(C)(C)c1cc(/C=N/NC(=O)c2ccccc2O)c(O)c(C(C)(C)C)c1` [4g, 2-Hydroxy-N’-[(E)-(3,5-di-tert-butyl-2-hydroxyphenyl)methylidene]benzohydrazide], for which, in assay [1] (non-competitive), the Ki is 52.6 µM.
Regarding `CC(C)(C)c1cccc(/C=N/NC(=O)c2cccc(O)c2)c1O` [4k, 3-Hydroxy-N’-[(E)-(3-tert-butyl-2-hydroxyphenyl)methylidene]benzohydrazide], the Ki in assay [1] (competitive) was determined as 35.8 µM.
Consider `O=C(N/N=C/c1cccc(-c2ccccc2)c1O)c1cccc(O)c1` [4n, 3-Hydroxy-N’-[(E)-(2-hydroxy-3-phenyl-phenyl)methylidene]benzohydrazide], for which, in assay [1] (setting [3]), affinity was put at a Ki of 139 µM.
`CC(C)(C)c1cc(/C=N/NC(=O)c2cccc(O)c2)c(O)c(C(C)(C)C)c1` [4h, 3-Hydroxy-N’-[(E)-(3,5-di-tert-butyl-2-hydroxyphenyl)methylidene]benzohydrazide]: in assay [1] (competitive), the Ki amounted to 18.9 µM.
In the case of `CC(=O)NN=Cc1cc(C)cc(C(C)(C)C)c1O` (mixture of isomers) [3a, (E/Z)-N’-(3-tert-butyl-2-hydroxy-5-methyl-benzylidene)acetohydrazide], in assay [2], the KI is > 1000 µM.
Compound `Cc1cc(/C=N/NC(=O)Cc2ccc(O)cc2)c(O)c(C(C)(C)C)c1` [3b, 2-(4-Hydroxyphenyl)-N’-[(E)-(3-tert-butyl-2-hydroxy-5-methylphenyl)methylidene]acetohydrazide] registered a Ki in assay [1] (uncompetitive, text b18 prints 49.1) of 49.2 µM.
Compound `O=C(N/N=C/c1cccc(-c2ccccc2)c1O)c1cc(O)cc(O)c1` [4o, 3,5-Dihydroxy-N’-[(E)-(2-hydroxy-3-phenyl-phenyl)methylidene]benzohydrazide] yielded a Ki in assay [1] (non-competitive) of 69.9 µM.
`O=C(N/N=C/c1cccc(-c2ccccc2)c1O)c1ccc2ccccc2c1O` [5b, N’-[(E)-(2-hydroxy-3-phenylphenyl)methylidene]-2-(1-hydroxynaphtho)hydrazide] gave a Ki in assay [1] (setting [3]) of 24.3 µM.
Still for that read-out and setting: with `Cc1cc(/C=N/NC(=O)c2ccc3ccccc3c2O)c(O)c(C(C)(C)C)c1` [5a, N’-[(E)-(3-tert-butyl-2-hydroxy-5-methylphenyl)methylidene]-2-(1-hydroxynaphtho)hydrazide] the figure was 8 µM.
As for `Cc1cc(/C=N/NC(=O)c2cc(O)cc(O)c2)c(O)c(C(C)(C)C)c1` [4f, 3,5-Dihydroxy-N’-[(E)-(3-tert-butyl-2-hydroxy-5-methylphenyl)methylidene]benzohydrazide], the affinity in assay [1] (competitive), expressed as Ki, was 32.3 µM.
On to `Cc1cc(/C=N/NC(=O)c2ccccc2O)c(O)c(C(C)(C)C)c1` [4e, 2-Hydroxy-N’-[(E)-(3-tert-butyl-2-hydroxy-5-methylphenyl)methylidene]benzohydrazide], for which the Ki in assay [1] (uncompetitive) was found to be 150 µM.
Regarding `CC(C)(C)c1cccc(/C=N/NC(=O)c2ccc3ccccc3c2O)c1O` [5d, N’-[(E)-(3-tert-butyl-2-hydroxy-phenyl)methylidene]-2-(1-hydroxynaphtho)hydrazide], in assay [1] (setting [3]), the inhibition constant Ki stood at 55.6 µM. That is a double-digit micromolar value.
`COc1cccc(C(=O)N/N=C/c2cc(C)cc(C(C)(C)C)c2O)c1` [4c, 3-Methoxy-N’-[(E)-(3-tert-butyl-2-hydroxy-5-methylphenyl)methylidene]benzohydrazide] yielded a Ki in assay [1] (non-competitive) of 17.4 µM.
As for `CC(C)(C)c1cccc(/C=N/NC(=O)c2ccccc2O)c1O` [4j, 2-Hydroxy-N’-[(E)-(3-tert-butyl-2-hydroxyphenyl)methylidene]benzohydrazide], in assay [1] (uncompetitive), the affinity, expressed as Ki, was 65.6 µM.
Consider `Cc1cc(/C=N/NC(=O)c2ccccc2)c(O)c(C(C)(C)C)c1` [4b, N’-[(E)-(3-tert-butyl-2-hydroxy-5-methylphenyl)methylidene]benzohydrazide], for which the Ki in assay [1] (competitive) came out at 82 µM.
Same read-out and setting: with `CC(C)(C)c1cccc(/C=N/NC(=O)c2cc(O)cc(O)c2)c1O` [4l, 3,5-Dihydroxy-N’-[(E)-(3-tert-butyl-2-hydroxyphenyl)methylidene]benzohydrazide] the figure was 38 µM.
In turn, `CC(C)(C)c1cc(/C=N/NC(=O)c2ccc3ccccc3c2O)c(O)c(C(C)(C)C)c1` [5c, N’-[(E)-(3,5-di-tert-butyl-2-hydroxy-phenyl)methylidene]-2-(1-hydroxynaphtho)hydrazide monomethanolate] displayed a Ki in assay [1] (non-competitive) of 16.2 µM.
Take `COc1ccc(C(=O)N/N=C/c2cc(C)cc(C(C)(C)C)c2O)cc1` [4d, 4-Methoxy-N’-[(E)-(3-tert-butyl-2-hydroxy-5-methylphenyl)methylidene]benzohydrazide]: in assay [1] (competitive), the affinity, expressed as Ki, was 25.8 µM. This lies in the double-digit micromolar range.
